We go through four sequences from article PMC11813147, “Bioactivity assessment of peptides derived from salted jellyfish (Rhopilema hispidum) byproducts” (PLOS ONE, 2025).

A short description of data set [1]: ABTS radical scavenging assay. The class given is biochemical. As to conditions: supplement tables; for ABTS, mean±SD: n = 3. As for the experimental part:
The ABTS radical scavenging activity of the sample was measured using a method adapted from Mirzaei et al.. The ABTS radical was generated by mixing 7 mM ABTS with 2.45 mM potassium persulfate in a 1:1 ratio and incubating the mixture in the dark at room temperature for 12 to 16 h. The resulting solution was then diluted to achieve an absorbance of 0.74 ± 0.03 at 734 nm, using deionized water for adjustments. Next, 10 μL of the sample was added to 190 μL of the ABTS solution. The mixture was incubated in the dark for 7 min, after which the absorbance was measured at 734 nm. The ABTS radical scavenging activity (%) was calculated using the following equation (2):
ABTSradicalscavengingactivity%=Acontrol–Asample/Acontrol×100 (2)
In this equation, Acontrol refers to the absorbance of the control solution (which contains all reagents except the test samples), while Asample refers to the absorbance of the mixture containing the sample and the ABTS solution. To determine the Trolox equivalent antioxidant capacity (TEAC), a Trolox standard curve was used, and the results were expressed as millimoles of Trolox equivalents per milligram of protein (mM TE/mg protein).

A short description of data set [2]: Ferric reducing antioxidant power (FRAP) assay. The format is biochemical. Here is the method: The FRAP assay was conducted following the method outlined by Rumpf et al.. The FRAP solution was prepared by mixing 300 mM acetate buffer (pH 3.6), 10 mM TPTZ (2,4,6-Tris(2-pyridyl)-s-triazine) in 40 mM hydrochloric acid, and 20 mM FeCl3 in a ratio of 10:1:1. In a 96-well plate, 10 μL of the sample was combined with 190 μL of the FRAP solution and incubated in the dark for 15 min. The absorbance of the mixture was then measured at 593 nm. FeSO4 was used to create the standard curve, and the results were expressed as millimoles of FeSO4 equivalent per milligram of protein (mM FeSO4/mg protein).

Data set [3] relates to RAW 264.7. Put plainly: Anti-inflammation assay: released NO in LPS-stimulated RAW 264.7 (Griess). The format is cell-based, Murine. As to conditions: then 1 µg/mL LPS 24 h; for Released NO: peptide 10 µg/mL 1 h; for Released NO, mean±SD: peptide 10 µg/mL pre-treatment 1 h, Griess reagent, n = 3. As for the experimental part:
(§1) Murine macrophage cells (RAW 264.7; ATCC TIB-71™) were cultured in Dulbecco’s Modified Eagle’s Medium (DMEM) that was supplemented with 10% heat-inactivated fetal bovine serum (FBS) and 1% antibiotic solution. Colorectal adenocarcinoma cells (CaCo-2; ATCC HTB 37™) were cultured in Eagle’s Minimum Essential Medium (EMEM), also supplemented with 10% heat-inactivated FBS and 1% antibiotic solution. Both cell types were maintained in a humidified incubator with 5% CO2. The cell culture medium was refreshed every three days.
The anti-inflammation assay was conducted following the method described by Barzkar et al. with slight modifications. RAW 264.7 (1 x 10^5 cells) was seeded into a 96-well plate to allow for cell attachment. After 24 h, the cells were pre-treated with fresh medium containing peptide samples at a concentration of 10 µg/mL for 1 h. Subsequently, the treated cells were stimulated with 1 µg/mL lipopolysaccharide (LPS) for an additional 24 h. Unstimulated cells were included as a negative control. At the end of the treatment period, the conditioned medium was collected for the determination of released nitric oxide (NO). Griess’s reagent (Promega) was utilized to measure the NO concentration, following the manufacturer’s instructions. A NO calibration curve was generated to quantify the released NO in the conditioned medium.
A general note: Griess reagent forms a coloured azo dye with nitrite.

Data set [4] in a line: DPPH radical scavenging assay. The class given is biochemical. As to conditions: for DPPH radical scavenging activity (TEAC): 10 µL sample + 190 µL 0.1 mM DPPH in 70% ethanol, 30 min dark, room temperature, 517 nm, Trolox standard curve; for DPPH radical scavenging activity (TEAC) / DPPH, mean±SD: mean ± SD, n = 3; for DPPH, mean±SD / DPPH: supplement tables. As for the experimental part:
The DPPH radical scavenging activity of the sample was assessed following a modified protocol based on a previous study. In each well of a 96-well plate, 10 μL of the sample was added, followed by 190 μL of 0.1 mM DPPH solution in 70% ethanol. The mixture was then incubated at room temperature in the dark for 30 min. After the incubation period, the absorbance of the mixture was measured at 517 nm. The DPPH radical scavenging activity was calculated using the following equation (1):
DPPHradicalscavengingactivity%=Acontrol–Asample/Acontrol×100 (1)
In this equation, Acontrol represents the absorbance of a control solution containing all reagents except for the test samples, while Asample is the absorbance of the mixture (the sample combined with 0.1 mM DPPH). To determine the Trolox equivalent antioxidant capacity (TEAC), a Trolox standard curve was utilized. The results were expressed as millimoles of Trolox equivalents per milligram of protein (mM TE/mg protein).
Background: DPPH is a stable violet radical that fades when it is reduced.

Data set [5] relates to RAW 264.7. Put plainly: Cytotoxicity assessment (MTT). The format is cell-based, Murine. As to conditions: peptide 10 µg/mL, 72 h; for Cell viability, mean±SD: relative to untreated cells. As for the experimental part:
as §1
Cytotoxicity assessment was performed following the method described by Yang et al., with slight modifications. RAW 264.7 was seeded with 1 x 10^5 cells in a 96-well plate with an appropriate cell culture medium. After allowing the cells to attach, the medium was replaced with a fresh cell culture medium containing the peptide samples at a concentration of 10 µg/mL. The treated cells were incubated for an additional 72 h. At the designated time, fresh medium was added, which included 3-(4,5-dimethylthiazol-2-yl)-2,5-diphenyltetrazolium bromide (MTT) at a concentration of 0.5 mg/mL. After 3 h, formazan crystals were observed. The medium was then removed, and the crystals were dissolved in 100% dimethyl sulfoxide (DMSO). A microplate reader (Synergy HTX; Biotek, Multi-Mode Reader, Winooski, VT, USA) was utilized to measure the absorbance at 570 nm (measurement wavelength) and 630 nm (reference wavelength). The percentage of cell viability was calculated relative to untreated cells using the following equation (5):
Cellviability%=ODtreatment–ODblank/ODuntreated–ODblank×100 (5)
Where ODtreatment is the absorbance of the treated sample, ODuntreated is the absorbance of the untreated sample, and ODblank is the absorbance from wells without treated and untreated samples.

Setting [6] is: 10 µL sample + 190 µL FRAP solution, 15 min dark, 593 nm, FeSO4 standard curve, mean ± SD, n = 3, SD.

As for “MVVACVLPEA [P16, synthesized peptide identified from jellyfish fraction PUR20C]”, in data set [1], the “ABTS, mean±SD” value is recorded as 121.31±0.87^D TE/mg protein. In addition, the ABTS in data set [1] (replicate 1) is 121.71 TE/mg protein; in data set [1] (replicate 2), 120.30 TE/mg protein; in data set [1] (replicate 3), 121.91 TE/mg protein. Further, the FRAP was determined as 6.92 mM FeSO4/mg protein in data set [2] (setting [6]); 8.05 mM FeSO4/mg protein in data set [2] (supplement tables, replicate 1); 7.63 mM FeSO4/mg protein in data set [2] (supplement tables, replicate 2); 5.10 mM FeSO4/mg protein in data set [2] (supplement tables, replicate 3). For the same sequence, the “Released NO” value with RAW 264.7 [3] (replicate 1) came out at 35.17 µM; in the data set with RAW 264.7 [3] (replicate 2), 33.44 µM; in the data set on RAW 264.7 [3] (replicate 3), 35.17 µM. Moreover, the “Released NO, mean±SD” value was 34.59 µM with RAW 264.7 [3] and 34.59 ± 0.99 µM with RAW 264.7 [3] (SD). Also, the “DPPH radical scavenging activity (TEAC)” value in data set [4] was “strongest DPPH radical scavenging activity”; in data set [4] (listed as MVVACVLPEA), 56.07 mM TE/mg protein. In addition, the “DPPH, mean±SD” value in data set [4] is recorded as 56.07±0.30^A TE/mg protein. Further, the values for the DPPH in data set [4] (replicate 1), in data set [4] (replicate 2) and in data set [4] (replicate 3) were 55.89 TE/mg protein, 55.89 TE/mg protein and 56.42 TE/mg protein, respectively. In the data set with RAW 264.7 [5] (n = 3), the “Cell viability, mean±SD” value was “without cytotoxic effects”. The Cell viability with RAW 264.7 [5] (replicate 1) is on record as 81.01%; with RAW 264.7 [5] (replicate 2) it was 81.37%; in the data set on RAW 264.7 [5] (replicate 3) it was 81.19%.
As for “LNIPKPKLNLL [P11, synthesized peptide identified from jellyfish fraction PUR20C]”, the “ABTS, mean±SD” value in data set [1] was 3.91 TE/mg protein. The results for the ABTS in data set [1] (replicate 1), in data set [1] (replicate 2) and in data set [1] (replicate 3) were 4.11 TE/mg protein, 3.71 TE/mg protein and 3.91 TE/mg protein, respectively. Further, the FRAP was 6.36±0.63^G mM FeSO4/mg protein in data set [2] (setting [6]); 6.36 mM FeSO4/mg protein in data set [2] (supplement tables, replicate 1); 7.00 mM FeSO4/mg protein in data set [2] (supplement tables, replicate 2); 5.73 mM FeSO4/mg protein in data set [2] (supplement tables, replicate 3). Further, the entries for the “Released NO” value in the data set with RAW 264.7 [3] (replicate 1), in the data set on RAW 264.7 [3] (replicate 2) and with RAW 264.7 [3] (replicate 3) were 36.55 µM, 35.86 µM and 37.58 µM, respectively. Besides, the “Released NO, mean±SD” value in the data set on RAW 264.7 [3] (SD) turned out to be 36.66 ± 0.86 µM. Besides, the “DPPH, mean±SD” value in data set [4] is on record as 3.81±0.40^E TE/mg protein. Further, the results for the DPPH in data set [4] (replicate 1), in data set [4] (replicate 2) and in data set [4] (replicate 3) were 3.90 TE/mg protein, 3.37 TE/mg protein and 4.17 TE/mg protein, respectively. The “Cell viability, mean±SD” value with RAW 264.7 [5] (n = 3, SD) turned out to be 84.71%. Further, the Cell viability was determined as 84.53% with RAW 264.7 [5] (replicate 1), 85.41% with RAW 264.7 [5] (replicate 2) and 84.18% in the data set with RAW 264.7 [5] (replicate 3).
On to “EQIYPMGEGDEL [P4, synthesized peptide identified from jellyfish fraction PUR20C]”, for which the “ABTS, mean±SD” value in data set [1] is 103.41±1.20^F TE/mg protein. The values for the ABTS in data set [1] (replicate 1), in data set [1] (replicate 2) and in data set [1] (replicate 3) were 103.28 TE/mg protein, 102.27 TE/mg protein and 104.68 TE/mg protein, respectively. In addition, the FRAP in data set [2] (setting [6]) was 8.40 mM FeSO4/mg protein; in data set [2] (supplement tables, replicate 1) it was 8.89 mM FeSO4/mg protein; in data set [2] (supplement tables, replicate 2), 8.47 mM FeSO4/mg protein; in data set [2] (supplement tables, replicate 3), 7.84 mM FeSO4/mg protein. In addition, the “Released NO” value in the data set with RAW 264.7 [3] (replicate 1) worked out at 38.96 µM; with RAW 264.7 [3] (replicate 2) it was 35.86 µM; in the data set with RAW 264.7 [3] (replicate 3), 36.55 µM. The “Released NO, mean±SD” value in the data set with RAW 264.7 [3] (SD) is 37.12 µM. The “DPPH, mean±SD” value in data set [4] is 3.81±0.30^E TE/mg protein. Moreover, the DPPH in data set [4] (replicate 1) is 3.64 TE/mg protein; in data set [4] (replicate 2), 3.64 TE/mg protein; in data set [4] (replicate 3) it was 4.17 TE/mg protein. In addition, in the data set with RAW 264.7 [5] (n = 3, SD), the “Cell viability, mean±SD” value worked out at 82.77±0.92%. Further, the Cell viability in the data set with RAW 264.7 [5] (replicate 1) came to 83.12%; in the data set on RAW 264.7 [5] (replicate 2), 83.47%; with RAW 264.7 [5] (replicate 3), 81.72%.
Consider “DAENKENVEE [P18, synthesized peptide identified from jellyfish fraction PUR20C]”, for which the “ABTS, mean±SD” value in data set [1] was found to be 6.05 TE/mg protein. The ABTS in data set [1] (replicate 1) is 5.71 TE/mg protein; in data set [1] (replicate 2) it was 5.51 TE/mg protein; in data set [1] (replicate 3), 6.91 TE/mg protein. The FRAP in data set [2] (setting [6]) was 4.40±0.43^H mM FeSO4/mg protein; in data set [2] (supplement tables, replicate 1), 4.89 mM FeSO4/mg protein; in data set [2] (supplement tables, replicate 2), 4.05 mM FeSO4/mg protein; in data set [2] (supplement tables, replicate 3), 4.26 mM FeSO4/mg protein. Also, the figures for the “Released NO” value in the data set with RAW 264.7 [3] (replicate 1), in the data set with RAW 264.7 [3] (replicate 2) and in the data set on RAW 264.7 [3] (replicate 3) were 34.13 µM, 31.37 µM and 31.03 µM, respectively. Besides, the “Released NO, mean±SD” value with RAW 264.7 [3] (SD) is recorded as 32.18±1.70^F µM. Further, in data set [4], the “DPPH, mean±SD” value is given as 6.03±0.79^D TE/mg protein. The DPPH is recorded as 5.23 TE/mg protein in data set [4] (replicate 1), 6.03 TE/mg protein in data set [4] (replicate 2) and 6.82 TE/mg protein in data set [4] (replicate 3). Also, the “Cell viability, mean±SD” value in the data set with RAW 264.7 [5] (n = 3, SD) is reported as 89.16%. For the same sequence, the values for the Cell viability with RAW 264.7 [5] (replicate 1), in the data set on RAW 264.7 [5] (replicate 2) and with RAW 264.7 [5] (replicate 3) were 86.29%, 87.17% and 94.02%, respectively.
